Measurements as given in PubChem BioAssay AID330 (DTP/NCI, 2004).
“And” between values parts separate entries of the source, which are not always exact repeats. Identical values can stand only once. Inconclusive results and toxic doses are left out. How the source made its calls: active means survival T/C of 150% or more; inactive means T/C below 125% in these data.

Test system: P388 leukemia ip, CD2F1 mice, survival T/C
Assay: NCI In Vivo Anticancer Drug Screen. Data for tumor model P388 Leukemia (intraperitoneal) in CD2F1 (CDF1) mice
Settings: endpoint: median survival time, higher = longer survival
Description: The antitumor activity of compounds was measured in mice bearing transplantable tumors. Survival or tumor size were measured and the results are expressed as the measurement made in the treated group (T) divided by the measurement made in the vehicle treated control group (C). The tumor model used in this assay is P388 Leukemia (intraperitoneal) in CD2F1 (CDF1) mice

[1] = dose: 12.5 mg/kg/injection, schedule: Q01DX009 (ip), vehicle: saline with Tween-80
[2] = dose: 25.0 mg/kg/injection, schedule: Q01DX009 (ip), vehicle: saline with Tween-80
[3] = dose: 200.0 mg/kg/injection, schedule: Q04DX003 (ip), vehicle: saline with Tween-80
[4] = dose: 25.0 mg/kg/injection, schedule: Q04DX002 (ip), vehicle: saline with Tween-80
[5] = dose: 60.0 mg/kg/injection, schedule: Q01DX005 (ip), vehicle: saline with Tween-80
[6] = dose: 120.0 mg/kg/injection, schedule: Q01DX005 (ip), vehicle: saline with Tween-80
[7] = dose: 240.0 mg/kg/injection, schedule: Q01DX005 (ip), vehicle: saline with Tween-80
[8] = dose: 25.0 mg/kg/injection, schedule: Q01DX009 (ip), vehicle: Klucel (hydroxypropylcellulose) (HPC)
[9] = dose: 50.0 mg/kg/injection, schedule: Q01DX009 (ip), vehicle: Klucel (hydroxypropylcellulose) (HPC)
[10] = dose: 100.0 mg/kg/injection, schedule: Q01DX009 (ip), vehicle: Klucel (hydroxypropylcellulose) (HPC)
[11] = dose: 200.0 mg/kg/injection, schedule: Q01DX009 (ip), vehicle: Klucel (hydroxypropylcellulose) (HPC)
[12] = dose: 100.0 mg/kg/injection, schedule: Q04DX003 (ip), vehicle: Klucel (hydroxypropylcellulose) (HPC)
[13] = dose: 200.0 mg/kg/injection, schedule: Q04DX003 (ip), vehicle: Klucel (hydroxypropylcellulose) (HPC)

Measured: T/C

FC(F)(F)S.[Ag]
inactive: [1] 107 % of control | [2] 116 % of control

CSc1nc(C)c(Br)c(Sc2nc(N)nc3nc[nH]c23)n1
inactive: [1] 104 % of control | dose: 50.0 mg/kg/injection, schedule: Q01DX009 (ip), vehicle: saline with Tween-80 113 % of control and 122 % of control | [3] 95 % of control

CN=C(N)N/N=C(\C)c1ccc2c(c1)Cc1ccccc1-2
inactive: [4] 122 % of control

COc1cc(C2c3cc4c(cc3OC(=O)C2C(C)=O)OCO4)cc(OC)c1OC (stereo unspecified)
inactive: dose: 30.0 mg/kg/injection, schedule: Q01DX005 (ip), vehicle: saline with Tween-80 89 % of control and 90 % of control | [5] 89 % of control (2×) and 93 % of control | [6] 107 % of control and 110 % of control

CCOC(OCC)c1ccc(Cl)cc1
inactive: dose: 100.0 mg/kg/injection, schedule: Q04DX003 (ip), vehicle: saline with Tween-80 100 % of control | [3] 105 % of control | dose: 400.0 mg/kg/injection, schedule: Q04DX003 (ip), vehicle: saline with Tween-80 106 % of control

O=c1ccc2cc(-c3ccncc3)cnc2[nH]1
inactive: [4] 100 % of control | dose: 50.0 mg/kg/injection, schedule: Q04DX002 (ip), vehicle: saline with Tween-80 94 % of control

Clc1ccc2ccc3ccc(Cl)nc3c2n1
inactive: [5] 92 % of control | [6] 89 % of control | [7] 92 % of control

CCCCCC1CCCC2NC(=O)CCC12 (stereo unspecified)
inactive: dose: 100.0 mg/kg/injection, schedule: Q04DX002 (ip), vehicle: saline with Tween-80 104 % of control | dose: 200.0 mg/kg/injection, schedule: Q04DX002 (ip), vehicle: saline with Tween-80 97 % of control | dose: 400.0 mg/kg/injection, schedule: Q04DX002 (ip), vehicle: saline with Tween-80 89 % of control

O=c1ccc2ccccc2o1
inactive: dose: 3.12 mg/kg/injection, schedule: Q01DX009 (ip), vehicle: saline with Tween-80 101 % of control and 108 % of control and 94 % of control | dose: 6.25 mg/kg/injection, schedule: Q01DX009 (ip), vehicle: saline with Tween-80 100 % of control and 101 % of control and 110 % of control | [1] 103 % of control and 110 % of control (2×) | [8] 100 % of control and 105 % of control | [2] 100 % of control and 110 % of control and 120 % of control | dose: 25.0 mg/kg/injection, schedule: Q04HX002 (ip), vehicle: water 100 % of control | [9] 105 % of control and 106 % of control and 107 % of control | dose: 50.0 mg/kg/injection, schedule: Q04HX002 (ip), vehicle: water 104 % of control | [10] 102 % of control and 105 % of control and 108 % of control | dose: 100.0 mg/kg/injection, schedule: Q01DX009 (ip), vehicle: saline with Tween-80 103 % of control and 114 % of control | dose: 100.0 mg/kg/injection, schedule: Q04HX002 (ip), vehicle: saline with Tween-80 91 % of control | dose: 100.0 mg/kg/injection, schedule: Q04HX002 (ip), vehicle: water 100 % of control | [11] 119 % of control and 94 % of control | dose: 200.0 mg/kg/injection, schedule: Q04HX002 (ip), vehicle: saline with Tween-80 59 % of control | dose: 200.0 mg/kg/injection, schedule: Q04HX002 (ip), vehicle: water 101 % of control | dose: 400.0 mg/kg/injection, schedule: Q04HX002 (ip), vehicle: saline with Tween-80 46 % of control

Nc1nc(SCC(=O)O)[nH]c(=O)c1NS(=O)(=O)c1ccccc1
inactive: dose: 60.0 mg/kg/injection, schedule: Q01DX005 (ip), vehicle: Klucel (hydroxypropylcellulose) (HPC) 108 % of control | dose: 120.0 mg/kg/injection, schedule: Q01DX005 (ip), vehicle: Klucel (hydroxypropylcellulose) (HPC) 109 % of control

COC(=O)Nc1nc2ccc(C(=O)OC)cc2[nH]1
inactive: dose: 100.0 mg/kg/injection, schedule: Q04DX003 (ip), vehicle: saline 102 % of control | dose: 200.0 mg/kg/injection, schedule: Q04DX003 (ip), vehicle: saline 103 % of control | dose: 400.0 mg/kg/injection, schedule: Q04DX003 (ip), vehicle: saline 103 % of control

C/C(=C1/N=C(c2ccccc2)OC1=O)c1ccc(C)cc1
inactive: dose: 50.0 mg/kg/injection, schedule: Q01DX005 (ip), vehicle: Klucel (hydroxypropylcellulose) (HPC) 106 % of control | dose: 100.0 mg/kg/injection, schedule: Q01DX005 (ip), vehicle: Klucel (hydroxypropylcellulose) (HPC) 90 % of control | dose: 200.0 mg/kg/injection, schedule: Q01DX005 (ip), vehicle: Klucel (hydroxypropylcellulose) (HPC) 106 % of control

C=CC(C)(O)CS(=O)(=O)c1ccccc1 (stereo unspecified)
inactive: dose: 50.0 mg/kg/injection, schedule: Q01DX009 (ip), vehicle: saline 93 % of control | dose: 100.0 mg/kg/injection, schedule: Q01DX009 (ip), vehicle: saline 101 % of control | dose: 200.0 mg/kg/injection, schedule: Q01DX009 (ip), vehicle: saline 101 % of control

C[N+](C)(C)c1ncnc2c1ncn2C1CC(O)C(CO)O1 (stereo unspecified)
inactive: dose: 50.0 mg/kg/injection, schedule: Q01DX005 (ip), vehicle: saline 95 % of control | dose: 100.0 mg/kg/injection, schedule: Q01DX005 (ip), vehicle: saline 98 % of control | dose: 200.0 mg/kg/injection, schedule: Q01DX005 (ip), vehicle: saline 101 % of control

CCCCCCC1NC(CCCCCC)N2C(CCCCCC)N12 (stereo unspecified)
inactive: [12] 101 % of control | [13] 97 % of control | dose: 400.0 mg/kg/injection, schedule: Q04DX003 (ip), vehicle: Klucel (hydroxypropylcellulose) (HPC) 93 % of control

FC(F)(F)c1ccc2c(c1)Nc1ccccc1S2
inactive: dose: 12.5 mg/kg/injection, schedule: Q04DX003 (ip), vehicle: Klucel (hydroxypropylcellulose) (HPC) 100 % of control and 105 % of control | dose: 25.0 mg/kg/injection, schedule: Q04DX003 (ip), vehicle: Klucel (hydroxypropylcellulose) (HPC) 103 % of control | dose: 50.0 mg/kg/injection, schedule: Q04DX003 (ip), vehicle: Klucel (hydroxypropylcellulose) (HPC) 108 % of control and 109 % of control | [12] 108 % of control and 118 % of control | [13] 114 % of control and 116 % of control

CCn1c2ccc([N+](=O)[O-])cc2c2c([N+](=O)[O-])c(NC(C)=O)ccc21
inactive: dose: 50.0 mg/kg/injection, schedule: Q01DX005 (ip), vehicle: saline with Tween-80 93 % of control | dose: 100.0 mg/kg/injection, schedule: Q01DX005 (ip), vehicle: saline with Tween-80 95 % of control | dose: 200.0 mg/kg/injection, schedule: Q01DX005 (ip), vehicle: saline with Tween-80 92 % of control

Cc1ccc(NC(=O)CCCC(=O)C(C#N)c2nc3ccccc3s2)cc1C (stereo unspecified)
inactive: [5] 100 % of control | [6] 98 % of control | [7] 98 % of control

CC1C(c2ccccc2)OCCN1C(=S)NC(=O)c1ccccc1 (stereo unspecified)
inactive: [8] 102 % of control | [9] 101 % of control | [10] 100 % of control | [11] 111 % of control

CCN(CC)C1=C(C)C(=O)[C@]2([Si](C)(C)C)[C@](OC)(c3ccc(C(F)(F)F)cc3)[C@]12[Si](C)(C)C
inactive: dose: 100.0 mg/kg/injection, schedule: Q01DX001 (ip), vehicle: saline with Tween-80 101 % of control | dose: 200.0 mg/kg/injection, schedule: Q01DX001 (ip), vehicle: saline with Tween-80 100 % of control | dose: 400.0 mg/kg/injection, schedule: Q01DX001 (ip), vehicle: saline with Tween-80 97 % of control
